The results in this text go back to ChEMBL document CHEMBL5506005, “Biochemical and structural characterization of chlorhexidine as an ATP-assisted inhibitor against type 1 methionyl-tRNA synthetase from Gram-positive bacteria” (Eur J Med Chem, 2024).

The term inhibition denotes how much of the control response was suppressed. In general, MIC refers to the smallest concentration in the dilution series that meets the test's criterion for growth inhibition. Read a high MIC as weaker potency. The term ΔTm denotes the change in melting temperature against a reference sample. In general, Kd refers to the constant that tells how readily two partners part at equilibrium. As a reminder, the IC50 is the concentration at which inhibition is half-maximal.

Each structure is given as a SMILES string. Converted amounts (≈) assume the structure as drawn. The source made the active and inactive calls.

Experiment [1] concerns the target Methionine--tRNA ligase (Staphylococcus aureus (strain Mu50 / ATCC 700699)) (UniProt P67578). Nature of the experiment: Binding affinity to Staphylococcus aureus MetRS expressed in Escherichia coli BL21(DE3) cells assessed as change in enthalpy by ITC analysis. On the technique in general: In ITC the heat of successive injections is recorded.
The target is the same in experiment [2]. Nature of the experiment: Inhibition of Staphylococcus aureus MetRS expressed in Escherichia coli BL21(DE3) cells at 100 uM measured after 2.5 hrs in presence of ATP by pre-transfer editing assay relative to control.
The subject of another experiment is Staphylococcus aureus. The experiment is described as follows: Antibacterial activity against Staphylococcus aureus. The format is functional.
Experiment [3] addresses T1, Methionine--tRNA ligase (Enterococcus faecalis) (UniProt A0A3N3ZFK4). The experiment is described as follows: Binding affinity to Enterococcus faecalis type 1 MetRS expressed in Escherichia coli BL21(DE3) cells assessed as change in Gibbs free energy in presence of 1 mM ATP by ITC analysis.
The target in experiment [4] is Methionine--tRNA ligase (Staphylococcus aureus (strain Mu50 / ATCC 700699)) (UniProt P67578). The experiment is described as follows: Binding affinity to Staphylococcus aureus MetRS expressed in Escherichia coli BL21(DE3) cells assessed as change in melting temperature at 100 uM incubated for 10 mins followed by heat treatment in presence of 2 mM ATP by SYPRO orange dye based TSA (reference value: 56.4 degreeC).
Sequence of Methionine--tRNA ligase (Staphylococcus aureus (strain Mu50 / ATCC 700699)) (P67578 whole entry): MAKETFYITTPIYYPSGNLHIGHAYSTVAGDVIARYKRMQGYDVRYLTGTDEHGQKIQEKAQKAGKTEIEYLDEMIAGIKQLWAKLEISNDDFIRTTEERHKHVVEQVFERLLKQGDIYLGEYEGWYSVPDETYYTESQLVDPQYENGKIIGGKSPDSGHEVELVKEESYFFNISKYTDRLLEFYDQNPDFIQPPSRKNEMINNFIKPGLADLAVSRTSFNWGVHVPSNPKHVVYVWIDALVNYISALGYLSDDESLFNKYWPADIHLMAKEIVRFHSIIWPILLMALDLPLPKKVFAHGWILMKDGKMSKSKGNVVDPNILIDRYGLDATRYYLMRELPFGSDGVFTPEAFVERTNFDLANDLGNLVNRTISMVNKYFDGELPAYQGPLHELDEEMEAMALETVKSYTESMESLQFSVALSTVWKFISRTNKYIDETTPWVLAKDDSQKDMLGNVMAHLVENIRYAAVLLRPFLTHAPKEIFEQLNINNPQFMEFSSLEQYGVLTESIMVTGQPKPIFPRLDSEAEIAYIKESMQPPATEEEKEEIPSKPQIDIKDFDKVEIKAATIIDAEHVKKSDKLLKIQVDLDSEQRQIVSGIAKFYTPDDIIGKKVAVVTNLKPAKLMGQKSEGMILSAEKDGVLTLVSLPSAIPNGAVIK

For experiment [5] the target is unchanged. The experiment is described as follows: Binding affinity to Staphylococcus aureus MetRS expressed in Escherichia coli BL21(DE3) cells assessed as change in entropy in presence of 50 uM ATP by ITC analysis.
Experiment [6] shares this target. The experiment is described as follows: Binding affinity to Staphylococcus aureus MetRS expressed in Escherichia coli BL21(DE3) cells assessed as increase in melting temperature incubated for 10 mins followed by heat treatment in presence of 0.30 to 10 mM ADP by SYPRO orange dye based TSA.
Experiment [7] shares this target. The experiment is described as follows: Binding affinity to Staphylococcus aureus MetRS expressed in Escherichia coli BL21(DE3) cells assessed as change in enthalpy in presence of 1 mM ATP by ITC analysis.
Experiment [8] has the same target. The experiment is described as follows: Binding affinity to Staphylococcus aureus MetRS expressed in Escherichia coli BL21(DE3) cells assessed as change in Gibbs free energy in presence of ATP/L-Met by ITC analysis.
For experiment [9] the target is unchanged. Nature of the experiment: Binding affinity to Staphylococcus aureus MetRS expressed in Escherichia coli BL21(DE3) cells assessed as change in entropy in presence of 1 mM ATP by ITC analysis.
Experiment [10] has the same target. The experiment is described as follows: Binding affinity to Staphylococcus aureus MetRS expressed in Escherichia coli BL21(DE3) cells assessed as change in melting temperature at 100 uM incubated for 10 mins followed by heat treatment by SYPRO orange dye based TSA (reference value: 53.7 degreeC).
For experiment [11], the target named is T1, Methionine--tRNA ligase (Enterococcus faecalis). The experiment is described as follows: Binding affinity to Enterococcus faecalis type 1 MetRS expressed in Escherichia coli BL21(DE3) cells assessed as change in enthalpy by ITC analysis.
In experiment [12] the target is Methionine--tRNA ligase (Staphylococcus aureus (strain Mu50 / ATCC 700699)) (UniProt P67578). The experiment is described as follows: Binding affinity to Staphylococcus aureus MetRS expressed in Escherichia coli BL21(DE3) cells assessed as change in enthalpy in presence of 20 uM ATP by ITC analysis.
The target is the same in experiment [13]. The experiment is described as follows: Binding affinity to Staphylococcus aureus MetRS expressed in Escherichia coli BL21(DE3) cells assessed as change in Gibbs free energy in presence of 50 uM ATP by ITC analysis.
Experiment [14] shares this target. The experiment is described as follows: Binding affinity to Staphylococcus aureus MetRS expressed in Escherichia coli BL21(DE3) cells assessed as change in Gibbs free energy in presence of 20 uM ATP by ITC analysis.
Experiment [15] has the same target. Nature of the experiment: Binding affinity to Staphylococcus aureus MetRS expressed in Escherichia coli BL21(DE3) cells assessed as change in Gibbs free energy in presence of 500 uM ATP by ITC analysis.
The target is the same in experiment [16]. The experiment is described as follows: Inhibition of Staphylococcus aureus type 1 MetRS expressed in Escherichia coli BL21(DE3) cells at 50 uM measured after 2.5 hrs by pre-transfer editing assay.
The target is the same in experiment [17]. Nature of the experiment: Binding affinity to Staphylococcus aureus MetRS expressed in Escherichia coli BL21(DE3) cells assessed as increase in melting temperature incubated for 10 mins followed by heat treatment in presence of <3 mM AMP by SYPRO orange dye based TSA.
The target in experiment [18] is T1, Methionine--tRNA ligase (Enterococcus faecalis). Nature of the experiment: Binding affinity to Enterococcus faecalis type 1 MetRS expressed in Escherichia coli BL21(DE3) cells assessed as change in enthalpy in presence of 1 mM ATP by ITC analysis.
For experiment [19], the target named is Methionine--tRNA ligase (Staphylococcus aureus (strain Mu50 / ATCC 700699)) (UniProt P67578). Nature of the experiment: Binding affinity to Staphylococcus aureus MetRS expressed in Escherichia coli BL21(DE3) cells assessed as change in Gibbs free energy in presence of 1 mM ATP by ITC analysis.
For experiment [20] the target is unchanged. The experiment is described as follows: Binding affinity to Staphylococcus aureus MetRS expressed in Escherichia coli BL21(DE3) cells assessed as change in enthalpy in presence of 500 uM ATP by ITC analysis.
Experiment [21] addresses T1, Methionine--tRNA ligase (Enterococcus faecalis). Nature of the experiment: Binding affinity to Enterococcus faecalis type 1 MetRS expressed in Escherichia coli BL21(DE3) cells assessed as change in entropy in presence of 1 mM ATP by ITC analysis.
Experiment [22] shares this target. The experiment is described as follows: Binding affinity to Enterococcus faecalis type 1 MetRS expressed in Escherichia coli BL21(DE3) cells assessed as change in Gibbs free energy by ITC analysis.
Experiment [23] concerns the target Methionine--tRNA ligase (Staphylococcus aureus (strain Mu50 / ATCC 700699)) (UniProt P67578). The experiment is described as follows: Binding affinity to Staphylococcus aureus MetRS expressed in Escherichia coli BL21(DE3) cells assessed as change in enthalpy in presence of ATP/L-Met by ITC analysis.
Experiment [24] has the same target. Nature of the experiment: Binding affinity to Staphylococcus aureus MetRS expressed in Escherichia coli BL21(DE3) cells assessed as change in enthalpy in presence of 50 uM ATP by ITC analysis.
Experiment [25] deals with T1, Methionine--tRNA ligase (Enterococcus faecalis). The experiment is described as follows: Inhibition of Enterococcus faecalis type 1 MetRS expressed in Escherichia coli BL21(DE3) cells at 50 uM measured after 1.5 hrs by pre-transfer editing assay.
The target of experiment [26] is Methionine--tRNA ligase (Staphylococcus aureus (strain Mu50 / ATCC 700699)) (UniProt P67578). Nature of the experiment: Binding affinity to Staphylococcus aureus MetRS expressed in Escherichia coli BL21(DE3) cells assessed as change in entropy in presence of 500 uM ATP by ITC analysis.
Experiment [27] has the same target. Nature of the experiment: Binding affinity to Staphylococcus aureus MetRS expressed in Escherichia coli BL21(DE3) cells assessed as change in entropy in presence of ATP/L-Met by ITC analysis.
For experiment [28] the target is unchanged. Nature of the experiment: Binding affinity to Staphylococcus aureus MetRS expressed in Escherichia coli BL21(DE3) cells assessed as change in Gibbs free energy by ITC analysis.
For experiment [29] the target is unchanged. Nature of the experiment: Binding affinity to Staphylococcus aureus MetRS expressed in Escherichia coli BL21(DE3) cells assessed as increase in melting temperature incubated for 10 mins followed by heat treatment in presence of 0.30 to 10 mM ATP by SYPRO orange dye based TSA.
Experiment [30] deals with T1, Methionine--tRNA ligase (Enterococcus faecalis). The experiment is described as follows: Binding affinity to Enterococcus faecalis type 1 MetRS expressed in Escherichia coli BL21(DE3) cells assessed as change in entropy by ITC analysis.
In experiment [31] the target is Methionine--tRNA ligase (Staphylococcus aureus (strain Mu50 / ATCC 700699)) (UniProt P67578). The experiment is described as follows: Binding affinity to Staphylococcus aureus MetRS expressed in Escherichia coli BL21(DE3) cells assessed as thermal stability by measuring change in melting temperature incubated for 10 mins followed by heat treatment in presence of 2 mM ATP by SYPRO orange dye based TSA.

Experiment [32] shares this target. Nature of the experiment: Binding affinity to Staphylococcus aureus MetRS expressed in Escherichia coli BL21(DE3) cells assessed as change in entropy in presence of 20 uM ATP by ITC analysis.
For experiment [33] the target is unchanged. Nature of the experiment: Binding affinity to Staphylococcus aureus MetRS expressed in Escherichia coli BL21(DE3) cells assessed as change in entropy by ITC analysis.
The target in experiment [34] is T2, Methionine--tRNA ligase (Staphylococcus aureus (strain Mu50 / ATCC 700699), UniProt P67578). The experiment is described as follows: Binding affinity to Staphylococcus aureus MetRS expressed in Escherichia coli BL21(DE3) cells assessed as dissociation constant in presence of 1 mM ATP by ITC analysis.
T2 sequence (P67578 whole entry): as above
The target of experiment [35] is T3, Methionine--tRNA ligase (Enterococcus faecalis, UniProt A0A3N3ZFK4). Nature of the experiment: Inhibition of Enterococcus faecalis type 1 MetRS expressed in Escherichia coli BL21(DE3) cells measured after 1.5 hrs in presence of ATP by pre-transfer editing assay.
T3 sequence (A0A3N3ZFK4 whole entry): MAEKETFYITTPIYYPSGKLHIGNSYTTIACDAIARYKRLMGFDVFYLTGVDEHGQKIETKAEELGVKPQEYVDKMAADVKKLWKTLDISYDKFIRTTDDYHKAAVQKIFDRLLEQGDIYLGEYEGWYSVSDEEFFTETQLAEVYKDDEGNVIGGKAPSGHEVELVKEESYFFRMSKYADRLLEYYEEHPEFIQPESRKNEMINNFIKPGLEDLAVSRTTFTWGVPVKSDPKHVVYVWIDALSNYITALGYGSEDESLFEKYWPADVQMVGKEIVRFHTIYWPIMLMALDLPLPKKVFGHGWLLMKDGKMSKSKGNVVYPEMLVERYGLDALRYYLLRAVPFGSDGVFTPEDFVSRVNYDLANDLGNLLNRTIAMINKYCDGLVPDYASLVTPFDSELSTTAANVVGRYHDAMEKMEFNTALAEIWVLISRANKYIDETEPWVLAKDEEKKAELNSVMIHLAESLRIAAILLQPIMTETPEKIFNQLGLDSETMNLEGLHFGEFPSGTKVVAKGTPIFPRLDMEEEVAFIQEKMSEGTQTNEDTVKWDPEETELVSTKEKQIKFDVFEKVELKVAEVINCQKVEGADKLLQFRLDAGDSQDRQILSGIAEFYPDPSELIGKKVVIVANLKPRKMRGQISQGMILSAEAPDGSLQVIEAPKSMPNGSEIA
The target of experiment [36] is T2, Methionine--tRNA ligase. Nature of the experiment: Binding affinity to Staphylococcus aureus MetRS expressed in Escherichia coli BL21(DE3) cells assessed as dissociation constant in presence of 50 uM ATP by ITC analysis.
In experiment [37] the target is T2, Methionine--tRNA ligase. The experiment is described as follows: Inhibition of Staphylococcus aureus MetRS expressed in Escherichia coli BL21(DE3) cells measured after 2.5 hrs in presence of ATP by pre-transfer editing assay.
For experiment [38], the target named is T3, Methionine--tRNA ligase. The experiment is described as follows: Binding affinity to Enterococcus faecalis type 1 MetRS expressed in Escherichia coli BL21(DE3) cells assessed as dissociation constant by ITC analysis.
The target of experiment [39] is T2, Methionine--tRNA ligase. Nature of the experiment: Binding affinity to Staphylococcus aureus MetRS expressed in Escherichia coli BL21(DE3) cells assessed as dissociation constant in presence of 20 uM ATP by ITC analysis.
Experiment [40] addresses T3, Methionine--tRNA ligase. The experiment is described as follows: Binding affinity to Enterococcus faecalis type 1 MetRS expressed in Escherichia coli BL21(DE3) cells assessed as dissociation constant in presence of 1 mM ATP by ITC analysis.
Experiment [41] has as its target T2, Methionine--tRNA ligase. Nature of the experiment: Binding affinity to Staphylococcus aureus MetRS expressed in Escherichia coli BL21(DE3) cells assessed as dissociation constant by ITC analysis.

T1 sequence (A0A3N3ZFK4 as listed by the source): as the sequence (A0A3N3ZFK4 whole entry) above

As for `N=C(NCCCCCCNC(=N)NC(=N)Nc1ccc(Cl)cc1)NC(=N)Nc1ccc(Cl)cc1` [CHLORHEXIDINE], the deltaH in [1] is -5.95 kcal/mol; in experiment [7] it was -11 kcal/mol; in [11], -11.3 kcal/mol; in experiment [12], -20 kcal/mol; in experiment [18], -7.31 kcal/mol; in [20] it was -12.5 kcal/mol. Further, the results for the deltaH in experiment [23] and in [24] were -13.6 kcal/mol and -18.8 kcal/mol, respectively. Further, the inhibition in experiment [2] was 78.3%. In the experiment with Staphylococcus aureus, this compound displayed an MIC of 0.25 µg/mL (≈ 0.495 µM). Besides, the deltaG in experiment [3] was -8.91 kcal/mol; in experiment [8], -7.34 kcal/mol; in [13] it was -8.07 kcal/mol; in experiment [14] it was -7.52 kcal/mol; in experiment [15], -8.5 kcal/mol; in experiment [19], -8.66 kcal/mol. Besides, the deltaG was -7.23 kcal/mol in experiment [22] and -6.81 kcal/mol in experiment [28]. Also, the thermal shift (ΔTm) in [4] was 7 °C; in [10], -3.4 °C; in [31], 7 °C. Further, the -TdeltaS was 10.7 kcal/mol in [5]; 2.31 kcal/mol in experiment [9]; -1.6 kcal/mol in experiment [21]; 4.43 kcal/mol in experiment [26]; 6.23 kcal/mol in experiment [27]; 4.06 kcal/mol in [30]. Moreover, the values for the -TdeltaS in experiment [32] and in experiment [33] were 13.8 kcal/mol and 0.027 kcal/mol, respectively. For the same compound, the result in experiment [6] and in [29] was Active. The inhibition result in experiment [16] and in experiment [25] was “Active” throughout. The outcome in experiment [17] was inactive.

In the case of `[H]/N=C(/NCCCCN/C(=N/[H])N/C(=N/[H])Nc1ccc(Cl)cc1)N/C(=N/[H])Nc1ccc(Cl)cc1`, the equilibrium dissociation constant (Kd) on Methionine--tRNA ligase [34] worked out at 452 nM; on Methionine--tRNA ligase [36], 493 nM; on Methionine--tRNA ligase [38], 2700 nM; on Methionine--tRNA ligase [39], 1370 nM; on Methionine--tRNA ligase [40], 150 nM; on Methionine--tRNA ligase [41] it was 4920 nM. The IC50 turned out to be 16100 nM on Methionine--tRNA ligase [35] and 17300 nM on Methionine--tRNA ligase [37].
